Experiment [1] relates to Aspergillus. oryzae. Particulars: 5 days, 28 C. The method, then:
The experiments were done using a lipid producing fungal strain Aspergillus. oryzae. From the sporulating fungus grown on PDA-plates a spore suspension was made by adding 12 ml of sterile water and the spores were scraped off with inoculation loop to the liquid. The spore suspension was used for media inoculation.
All of them contained these basic nutrients, and small amount of fine cellulose to prevent the fungus from clumping.
The organic acids were added in so the concentration of the formic and acetic acid alone was 0, 1, 3, 5 and 7 g/l, and for the two acids together 0, 1, 3, 5, 7 and 9 g/l. After this the pH of the media was adjusted to 5.5-6.0 using 3 M NaOH. The medium was distributed to 50 ml batches into 250 ml erlenmayer flasks. The media was sterilized in autoclave 121 C 15 min. After cooling down, each flask was inoculated using 0.5 ml spore suspension mentioned earlier. For each concentration, parallel cultivations were made. The cultivations were incubated in 160 rpm shaking at 28 C 5 days. The growth was observed daily with a microscope, and in the end of the cultivation the biomass and lipid contents were determined.
The biomass content was determined by vacuum filtering the whole content of the flask and washing the biomass with 50 ml of distilled water. After this the biomass cakes were frozen and dried overnight in freeze dryer. From the dries biomass the lipid content was analyzed according to Suutari et al. (1990). The lipids in the samples were first hydrolysed into free fatty acids, which were saponified into sodium salts thereof and thereafter methylated into methyl esters. The fatty methyl esters were analysed gas chromatographically.

Experiment [2] has as its system Aspergillus oryzae TKK-4. Kind of experiment: Effect of furfural on microbial growth, flask cultivation (Example 7). Particulars: for DW (dry weight concentration): after 6 days of cultivation. It is filed as cell-based. The method, then:
(§1) Two fungal strains Aspergillus oryzae TKK-4 and Mortierella isabellina TKK-1 and one yeast strain Lipomyces starkeyi TKK-1 were cultivated in flasks in a standard medium (Table 12) with furfural addition. The microorganisms were grown for 6 days in 28° C. with 160 rpm (for fungi) and 250 rpm (for yeast). Cellulose was added to help the fungus grow with a better morphology. Furfural was added in different amounts into the medium (0-4 g/l) and the growth of the microorganisms was observed.

The test system of experiment [3] is Lipomyces starkeyi TKK-1. Described as above. The settings on record: for DW (dry weight concentration): after 6 days of cultivation. It is filed as cell-based. The method, then: as §1
Experiment [4] deals with Mortierella isabellina TKK-1. Described as above. It is filed as cell-based. Particulars: for DW (dry weight concentration): after 6 days of cultivation. How it is done: as §1

Like-named read-outs stand apart in the source and are kept apart here. A value given as a limit tells only on which side of the number the result lay.

`CC(=O)O` [Acetic acid, acetic acid]: the Biomass concentration in experiment [1] (acid concentration 1 g/l) was 12.4 g/L; in experiment [1] (acid concentration 3 g/l), 11.4 g/L; in experiment [1] (acid concentration 5 g/l), 11.1 g/L; in experiment [1] (acid concentration 7 g/l), 11.5 g/L. The Lipid content stood at 19.8 % from cell dry weight in experiment [1] (acid concentration 1 g/l), 20.7 % from cell dry weight in experiment [1] (acid concentration 3 g/l), 21.2 % from cell dry weight in experiment [1] (acid concentration 5 g/l) and 24.3 % from cell dry weight in experiment [1] (acid concentration 7 g/l).
As to `O=CO` [Formic acid, formic acid], the Biomass concentration in experiment [1] (acid concentration 1 g/l) turned out to be 12.5 g/L; in experiment [1] (acid concentration 3 g/l), 12.0 g/L; in experiment [1] (acid concentration 5 g/l) it was 11.2 g/L; in experiment [1] (acid concentration 7 g/l) it was 10.9 g/L. The Lipid content in experiment [1] (acid concentration 1 g/l) was 19.5 % from cell dry weight; in experiment [1] (acid concentration 3 g/l), 19.5 % from cell dry weight; in experiment [1] (acid concentration 5 g/l), 15.9 % from cell dry weight; in experiment [1] (acid concentration 7 g/l) it was 19.8 % from cell dry weight.
Consider `O=Cc1ccco1` [Furfural], for which the “Furfural concentration in which the microbe grew” value in experiment [2] (after one week) is 0.5 g/L; in experiment [3] (after a few days), 1.2 g/L. Besides, the “Furfural concentration that inhibited the growth completely” value in experiment [2] (after one week) is ≥ 0.75 g/L. Further, the “DW (dry weight concentration)” value amounted to 18.18 g/L in experiment [2] (furfural 0.1 g/l); 16.54 g/L in experiment [2] (furfural 0.2 g/l); 13.53 g/L in experiment [2] (furfural 0.3 g/l); 11.58 g/L in experiment [2] (furfural 0.4 g/l); 14.79 g/L in experiment [3] (furfural 0.6 g/l); 14.39 g/L in experiment [3] (furfural 1.2 g/l). The “DW (dry weight concentration)” value in experiment [4] (furfural 0.2 g/l) stood at 7.02 g/L; in experiment [4] (furfural 0.4 g/l), 13.80 g/L; in experiment [4] (furfural 0.6 g/l), 14.96 g/L; in experiment [4] (furfural 0.8 g/l) it was 9.28 g/L. In addition, in experiment [3], the “Inhibiting concentration of furfural” value is ≥ 1.8 g/L. In addition, in experiment [4], the “Furfural concentration in which the microbe did not grow” value is ≥ 1 g/L. The “Furfural concentration in which some growth was observed” value in experiment [4] (after 4-6 days) was found to be 0.8 g/L.
